Reference: ChEMBL document CHEMBL5252618, “Discovery and Biosynthesis of Imidazolium Antibiotics from the Probiotic Bacillus licheniformis” (J Nat Prod, 2023)
Where “and” joins values, the source holds several entries; their conditions need not be identical. Identical values can stand only once. Calls of active or inactive are those of the source. The calls are words filed in the database; no cut-off is given here.

How the values were obtained:
HepG2 = assay: Cytotoxicity against human HepG2 cells at 31.25 to 500 uM incubated for 24 hrs by CellTiter96 aqueous one solution based assay; type: functional, cell-based; conditions: dose 31.25-500 µM
WI-38 = assay: Cytotoxicity against human WI-38 cells at 31.25 to 500 uM incubated for 24 hrs by CellTiter96 aqueous one solution based assay; type: toxicity, cell-based; conditions: wi-38, 24 h, dose 31.25-500 µM
HCT-116 = assay: Cytotoxicity against human HCT-116 cells at 31.25 to 500 uM incubated for 24 hrs by CellTiter96 aqueous one solution based assay; type: functional, cell-based; conditions: dose 31.25-500 µM
NIH3T3 = assay: Cytotoxicity against mouse NIH3T3 cells at 31.25 to 500 uM incubated for 24 hrs by CellTiter96 aqueous one solution based assay; type: toxicity, cell-based; conditions: nih3t3, 24 h, dose 31.25-500 µM
[1] = Cytotoxicity against human Chang liver cells at 31.25 to 500 uM incubated for 24 hrs by CellTiter96 aqueous one solution based assay; type: toxicity, cell-based; conditions: dose 31.25-500 µM
A549 = assay: Cytotoxicity against human A549 cells at 31.25 to 500 uM incubated for 24 hrs by CellTiter96 aqueous one solution based assay; type: functional, cell-based; conditions: dose 31.25-500 µM
RAW264.7 = assay: Antiinflammatory activity in mouse RAW 264.7 cells assessed as inhibition of LPS-induced NO production at 10 uM pretreated for 1 hr followed by LPS stimulation and further incubated for 24 hrs by griess reagent based assay; type: functional, cell-based; conditions: time 25.0 hrs
HT-1080 = assay: Cytotoxicity against human HT-1080 cells at 31.25 to 500 uM incubated for 24 hrs by CellTiter96 aqueous one solution based assay; type: functional, cell-based; conditions: dose 31.25-500 µM
[2] = test system: Lacticaseibacillus paracasei; assay: Antibacterial activity against Lacticaseibacillus paracasei subsp.paracasei ATCC25302 assessed as bacterial growth inhibition incubated for overnight by visual analysis; type: functional; conditions: subsp. paracasei ATCC 25302
Acinetobacter baumannii [3] = assay: Synergistic antibacterial activity against Acinetobacter baumannii assessed as potentiation of colistin-induced antibacterial effect by measuring colistin MIC at 0.32 to 84 ug/ml incubated for 24 hrs by checker board assay (reference value: 0.2 ug/ml); type: functional; conditions: dose 0.32-84 µg/ml
Escherichia coli [4] = assay: Antibacterial activity against Escherichia coli MG1655 assessed as bacterial growth inhibition incubated for overnight by visual analysis; type: functional
Acinetobacter baumannii [5] = assay: Synergistic antibacterial activity against Acinetobacter baumannii assessed as potentiation of colistin-induced antibacterial effect by measuring […] in colistin MIC at 0.32 to 84 ug/ml incubated for 24 hrs by checker board assay relative to control; type: functional; conditions: dose 0.32-84 µg/ml
Staphylococcus aureus [6] = assay: Antibacterial activity against methicillin-resistant Staphylococcus aureus USA300 assessed as bacterial growth inhibition incubated for overnight by visual analysis; type: functional
Escherichia coli [7] = assay: Synergistic antibacterial activity against wild type Escherichia coli MG1655 assessed as potentiation of colistin-induced antibacterial effect by measuring […] in colistin MIC at 0.32 to 84 ug/ml incubated for 24 hrs by checker board assay relative to control; type: functional; conditions: dose 0.32-84 µg/ml
Acinetobacter baumannii [8] = assay: Antibacterial activity against Acinetobacter baumannii assessed as bacterial growth inhibition incubated for overnight by visual analysis; type: functional
Acinetobacter baumannii [9] = assay: Antibacterial activity against Acinetobacter baumannii harboring LPS-deficient mutant lpxC assessed as bacterial growth inhibition incubated for overnight by visual analysis; type: functional
Escherichia coli [10] = assay: Synergistic antibacterial activity against wild type Escherichia coli MG1655 assessed as potentiation of colistin-induced antibacterial effect by measuring colistin MIC at 0.32 to 84 ug/ml incubated for 24 hrs by checker board assay (reference value: 2.5 ug/ml); type: functional; conditions: dose 0.32-84 µg/ml
[11] = test system: Brevibacterium epidermidis; assay: Antibacterial activity against Brevibacterium epidermidis ATCC35514 assessed as bacterial growth inhibition incubated for overnight by visual analysis; type: functional
Escherichia coli [12] = assay: Antibacterial activity against Escherichia coli ATCC 25922 assessed as bacterial growth inhibition incubated for 18 hrs; type: functional
Staphylococcus aureus [13] = assay: Antibacterial activity against methicillin-resistant Staphylococcus aureus ATCC 33591 assessed as bacterial growth inhibition incubated for 18 hrs; type: functional
Bacillus subtilis = assay: Antibacterial activity against Bacillus subtilis NRS-231 assessed as bacterial growth inhibition incubated for 18 hrs; type: functional

Compound: CC(=O)c1cc(C)c(C)n1CCc1c[nH]c2ccccc12
- Activity (HepG2): inactive
- Activity (WI-38): Non-Toxic
- Activity (HCT-116): inactive
- Activity (NIH3T3): Non-Toxic
- Activity [1]: Non-Toxic
- Activity (A549): inactive
- inhibition (RAW264.7): Active
- Activity (HT-1080): inactive

Compound: Cc1c(C)[n+](CCc2c[nH]c3ccccc23)cn1CCc1ccccc1
- Activity (HepG2): inactive
- Activity (WI-38): Non-Toxic
- Activity (HCT-116): inactive
- Activity (NIH3T3): Non-Toxic
- Activity [1]: Non-Toxic
- Activity (A549): inactive
- MIC [2]: > 34 µg/mL and > 100 µM
- Activity (HT-1080): inactive

Compound: CCCC(=O)C(C)NCCc1c[nH]c2ccccc12 (stereo not drawn)
- Activity (HepG2): inactive
- Activity (WI-38): Non-Toxic
- Activity (HCT-116): inactive
- Activity (NIH3T3): Non-Toxic
- Activity [1]: Non-Toxic
- Activity (A549): inactive
- Activity (HT-1080): inactive

Compound: CCCc1n(CCc2c[nH]c3ccccc23)c(C)c(C)[n+]1CCc1c[nH]c2ccccc12
- MIC (Acinetobacter baumannii [3]): 0.05 mg/L
- Activity (HepG2): inactive
- Activity (WI-38): Non-Toxic
- MIC (Escherichia coli [4]): > 100 µM
- fold change (FC) (Acinetobacter baumannii [5]): 4
- Activity (HCT-116): inactive
- Activity (NIH3T3): Non-Toxic
- Activity [1]: Non-Toxic
- MIC (Staphylococcus aureus [6]): 1.3 µg/mL and 3.13 µM
- fold change (FC) (Escherichia coli [7]): 8
- Activity (A549): inactive
- MIC (Acinetobacter baumannii [8]): > 100 µM
- MIC (Acinetobacter baumannii [9]): 2.6 µg/mL and 6.25 µM
- MIC (Escherichia coli [10]): 0.313 mg/L
- MIC [11]: 1.3 µg/mL and 3.13 µM
- MIC [2]: 0.7 µg/mL and 1.56 µM
- Activity (HT-1080): inactive

Compound: CC(=O)NCCc1ccccc1
- Activity (HepG2): inactive
- Activity (WI-38): Non-Toxic
- Activity (HCT-116): inactive
- Activity (NIH3T3): Non-Toxic
- Activity [1]: Non-Toxic
- Activity (A549): inactive
- Activity (HT-1080): inactive

Compound: CCCc1c(C)[n+](CCc2c[nH]c3ccccc23)c(CCC)n1CCc1c[nH]c2ccccc12
- Activity (HepG2): Active
- Activity (WI-38): Non-Toxic
- MIC (Escherichia coli [4]): > 100 µM
- Activity (HCT-116): Active
- Activity (NIH3T3): Non-Toxic
- Activity [1]: Non-Toxic
- MIC (Staphylococcus aureus [6]): 11 µg/mL and 25 µM
- Activity (A549): Active
- MIC (Acinetobacter baumannii [8]): > 100 µM
- MIC (Acinetobacter baumannii [9]): 11 µg/mL and 25 µM
- MIC [11]: 11 µg/mL and 25 µM
- MIC [2]: 6 µg/mL and 12.5 µM
- inhibition (RAW264.7): Active
- Activity (HT-1080): Active

Compound: O=c1[nH]cc(F)c(=O)[nH]1 [FLUOROURACIL]
- Activity (WI-38): Toxic
- Activity (NIH3T3): Toxic
- Activity [1]: Toxic

Compound: Cc1c(C)[n+](CCc2c[nH]c3ccccc23)cn1CCc1c[nH]c2ccccc12
- Activity (HepG2): inactive
- Activity (WI-38): Non-Toxic
- MIC (Escherichia coli [4]): > 100 µM
- Activity (HCT-116): inactive
- Activity (NIH3T3): Non-Toxic
- Activity [1]: Non-Toxic
- MIC (Staphylococcus aureus [6]): > 100 µM
- Activity (A549): inactive
- MIC (Acinetobacter baumannii [8]): > 100 µM
- MIC (Acinetobacter baumannii [9]): 38 µg/mL and 100 µM
- MIC [11]: > 100 µM
- MIC [2]: 19 µg/mL and 50 µM
- Activity (HT-1080): inactive

Compound: CC(=O)C(C)NCCc1c[nH]c2ccccc12 (stereo not drawn)
- Activity (HepG2): inactive
- Activity (WI-38): Non-Toxic
- MIC (Escherichia coli [4]): > 100 µM
- Activity (HCT-116): inactive
- Activity (NIH3T3): Non-Toxic
- Activity [1]: Non-Toxic
- MIC (Staphylococcus aureus [6]): 12 µg/mL and 50 µM
- Activity (A549): inactive
- MIC [11]: 12 µg/mL and 50 µM
- MIC [2]: 6 µg/mL and 25 µM
- Activity (HT-1080): inactive

Compound: Cc1c(C)[n+](CCc2c[nH]c3ccccc23)c(C)n1CCc1c[nH]c2ccccc12
- Activity (HepG2): inactive
- Activity (WI-38): Non-Toxic
- MIC (Escherichia coli [4]): > 100 µM
- Activity (HCT-116): inactive
- Activity (NIH3T3): Non-Toxic
- MIC (Escherichia coli [12]): > 50 µM
- Activity [1]: Non-Toxic
- MIC (Staphylococcus aureus [6]): 20 µg/mL and 50 µM
- MIC (Staphylococcus aureus [13]): > 50 µM
- Activity (A549): inactive
- MIC (Acinetobacter baumannii [8]): > 100 µM
- MIC (Bacillus subtilis): > 50 µM
- MIC (Acinetobacter baumannii [9]): 40 µg/mL and 100 µM
- MIC [11]: > 100 µM
- MIC [2]: 20 µg/mL and 50 µM
- Activity (HT-1080): inactive

Compound: CCCc1n(CCC(C)C)c(C)c(C)[n+]1CCc1c[nH]c2ccccc12
- Activity (HepG2): inactive
- Activity (WI-38): Non-Toxic
- MIC (Escherichia coli [4]): > 100 µM
- Activity (HCT-116): inactive
- Activity (NIH3T3): Non-Toxic
- Activity [1]: Non-Toxic
- MIC (Staphylococcus aureus [6]): > 100 µM
- Activity (A549): inactive
- MIC (Acinetobacter baumannii [8]): > 100 µM
- MIC (Acinetobacter baumannii [9]): 9 µg/mL and 25 µM
- MIC [11]: > 100 µM
- MIC [2]: 9 µg/mL and 25 µM
- inhibition (RAW264.7): Active
- Activity (HT-1080): inactive

Compound: Cc1c(C)[n+](CCc2c[nH]c3ccccc23)c(CC(C)C)n1CCc1c[nH]c2ccccc12
- Activity (HepG2): inactive
- Activity (WI-38): Non-Toxic
- MIC (Escherichia coli [4]): > 100 µM
- Activity (HCT-116): inactive
- Activity (NIH3T3): Non-Toxic
- Activity [1]: Non-Toxic
- MIC (Staphylococcus aureus [6]): > 100 µM
- Activity (A549): inactive
- MIC (Acinetobacter baumannii [8]): > 100 µM
- MIC (Acinetobacter baumannii [9]): 22 µg/mL and 50 µM
- MIC [11]: > 100 µM
- MIC [2]: 22 µg/mL and 50 µM
- inhibition (RAW264.7): inactive
- Activity (HT-1080): inactive

Compound: NCCc1c[nH]c2ccccc12 [TRYPTAMINE]
- Activity (HepG2): inactive
- Activity (WI-38): Non-Toxic
- Activity (HCT-116): inactive
- Activity (NIH3T3): Non-Toxic
- Activity [1]: Non-Toxic
- Activity (A549): inactive
- Activity (HT-1080): inactive

Compound: Cc1c(C)[n+](CCc2c[nH]c3ccccc23)c(C)n1CCc1ccccc1
- Activity (HepG2): inactive
- Activity (WI-38): Non-Toxic
- Activity (HCT-116): inactive
- Activity (NIH3T3): Non-Toxic
- Activity [1]: Non-Toxic
- Activity (A549): inactive
- MIC [2]: > 36 µg/mL and > 100 µM
- inhibition (RAW264.7): inactive
- Activity (HT-1080): inactive
